Results: ChEMBL document CHEMBL1143984, “Anti-inflammatory activity profile of JANEX-1 in preclinical animal models” (Bioorg Med Chem, 2008)
Calls of active or inactive are those of the source. The calls are words filed in the database; no cut-off is given here.

Assays:
[1] = tested on: Mus musculus; assay: Effect on LPS-induced nitric oxide production in C3H-FeJ peritonitis mouse peritoneal macrophages at 2 mg/kg, ip after 7 days; format: functional; conditions: route intraperitoneal
[2] = tested on: Mus musculus; assay: Effect on LPS-induced nitric oxide production in C3H-FeJ peritonitis mouse peritoneal macrophages at 2 mg/kg, ip after 3 days; format: functional; conditions: route intraperitoneal
[3] = tested on: Mus musculus; assay: Effect on TNF-mediated cytotoxicity against C3H-FeJ mouse L929 cells at 2 mg/kg, ip after 7 days; format: functional; conditions: route intraperitoneal
[4] = tested on: RAW; assay: Inhibition of LPS-induced nitric oxide production in mouse RAW 264.7 cells assessed as nitrite formation; format: functional, cell-based
[5] = target: T1, Tyrosine-protein kinase JAK3 (Mus musculus) (UniProt Q62137); assay: Reduction of LPS-induced JAK3 phosphorylation in mouse RAW 264.7 cells at 100 ug/mL by Western blot analysis; format: cell-based
T1 sequence (whole entry): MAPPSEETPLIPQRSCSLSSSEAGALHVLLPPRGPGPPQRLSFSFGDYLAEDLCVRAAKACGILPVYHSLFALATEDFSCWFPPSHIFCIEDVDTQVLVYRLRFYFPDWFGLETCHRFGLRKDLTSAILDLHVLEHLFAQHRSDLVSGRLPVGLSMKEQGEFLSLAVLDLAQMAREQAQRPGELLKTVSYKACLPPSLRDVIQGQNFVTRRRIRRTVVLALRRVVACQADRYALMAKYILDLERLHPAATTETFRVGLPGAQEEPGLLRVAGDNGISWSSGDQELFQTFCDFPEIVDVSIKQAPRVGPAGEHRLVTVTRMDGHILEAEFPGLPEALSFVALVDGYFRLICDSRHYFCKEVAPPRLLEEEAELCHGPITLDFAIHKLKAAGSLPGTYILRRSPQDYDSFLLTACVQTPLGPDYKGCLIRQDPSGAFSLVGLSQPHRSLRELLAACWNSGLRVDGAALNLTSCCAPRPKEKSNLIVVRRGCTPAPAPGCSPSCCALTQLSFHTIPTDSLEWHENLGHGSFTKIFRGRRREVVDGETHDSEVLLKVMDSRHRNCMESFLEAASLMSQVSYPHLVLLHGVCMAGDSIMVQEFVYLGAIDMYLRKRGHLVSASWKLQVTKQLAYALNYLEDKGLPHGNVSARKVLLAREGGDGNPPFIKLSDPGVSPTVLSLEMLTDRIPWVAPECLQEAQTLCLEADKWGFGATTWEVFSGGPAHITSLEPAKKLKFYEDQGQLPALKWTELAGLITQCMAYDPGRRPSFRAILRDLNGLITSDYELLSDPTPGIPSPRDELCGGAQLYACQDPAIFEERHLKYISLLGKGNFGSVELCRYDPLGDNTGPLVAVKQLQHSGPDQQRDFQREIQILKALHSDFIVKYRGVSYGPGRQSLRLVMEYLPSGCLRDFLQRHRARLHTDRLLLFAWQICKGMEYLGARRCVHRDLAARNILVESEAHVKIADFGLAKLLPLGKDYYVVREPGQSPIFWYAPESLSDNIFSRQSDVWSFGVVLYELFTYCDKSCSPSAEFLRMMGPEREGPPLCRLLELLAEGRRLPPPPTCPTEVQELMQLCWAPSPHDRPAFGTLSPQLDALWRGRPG

[6] = tested on: RAW; assay: Inhibition of LPS-induced iNOS mRNA level in mouse RAW 264.7 cells by Northern blot analysis; format: functional, cell-based
[7] = tested on: Mus musculus; assay: Effect on LPS-induced nitric oxide production in C3H-FeJ peritonitis mouse peritoneal macrophages at 4 mg/kg, ip after 7 days; format: functional; conditions: route intraperitoneal
[8] = tested on: L929; assay: Effect on TNF-mediated cytotoxicity against mouse L929 cells at 100 ug/mL after 18 hrs by crystal-violet staining assay; format: functional
[9] = organism: Mus musculus; assay: Antiinflammatory activity against LPS-galactosamine challenged C57BL/6J SIRS mouse model at 500 ug assessed as mortality within 24 hrs; format: functional, organism-based
[10] = tested on: L929; assay: Inhibition of LPS-induced nitric oxide production in mouse L929 cells assessed as nitrite formation; format: functional, cell-based
[11] = tested on: L929; assay: Inhibition of LPS-induced TNFalpha production in mouse L929 cells after 4 hrs by ELISA; format: functional, cell-based; conditions: L929, 4 h
[12] = tested on: Mus musculus; assay: Antiinflammatory activity against TNBS-induced colitis in BALB/c IBD mouse model at 25 mg/kg, ip; format: functional, organism-based; parameters: dose 25 mg/kg
[13] = tested on: HT-29; assay: Inhibition of LPS-stimulated prostaglandin E2 release in human HT29 cells after 6 hrs by ELISA; format: functional, cell-based
[14] = tested on: Mus musculus; assay: Effect on TNF-mediated cytotoxicity against C3H-FeJ mouse L929 cells at 2 mg/kg, ip after 3 days; format: functional; conditions: route intraperitoneal
[15] = tested on: Mus musculus; assay: Antiinflammatory activity in paraffin oil challenged C3H-FeJ peritonitis mouse model assessed as peritoneal levage macrophage count per 10^5/mL at 4 mg/kg, ip after 3 days; format: functional; conditions: route intraperitoneal
[16] = tested on: Mus musculus; assay: Effect on TNF-mediated cytotoxicity against C3H-FeJ mouse […] cells at 4 mg/kg, ip after 7 days; format: functional; conditions: route intraperitoneal
[17] = tested on: Mus musculus; assay: Antiinflammatory activity in paraffin oil challenged ip dosed C3H-FeJ peritonitis mouse model after 7 days; format: functional; conditions: 168 h
[18] = tested on: RAW; assay: Inhibition of LPS-induced TNFalpha production in mouse RAW 264.7 cells after 4 hrs by ELISA; format: functional, cell-based
[19] = tested on: RAW; assay: Inhibition of LPS-induced TNFalpha mRNA level in mouse RAW 264.7 cells by Northern blot analysis; format: functional, cell-based
[20] = tested on: Mus musculus; assay: Antiinflammatory activity against carrageenan-induced hind paw edema in ICR foot-pad mouse model assessed as reduction in paw swelling at 30 mg/kg, ip after 6 hrs; format: functional, organism-based; parameters: dose 30 mg/kg
[21] = tested on: Mus musculus; assay: Antiinflammatory activity in paraffin oil challenged C3H-FeJ peritonitis mouse model assessed as peritoneal levage macrophage count per 10^5/mL at 4 mg/kg, ip after 7 days; format: functional; conditions: route intraperitoneal
[22] = tested on: Mus musculus; assay: Effect on TNF-mediated cytotoxicity against C3H-FeJ mouse […] cells at 4 mg/kg, ip after 3 days; format: functional; conditions: route intraperitoneal
[23] = tested on: L929; assay: Effect on TNF-mediated cytotoxicity against mouse L929 cells at 10 ug/mL after 18 hrs by crystal-violet staining assay; format: functional
[24] = tested on: L929; assay: Effect on TNF-mediated cytotoxicity against mouse L929 cells at 1 ug/mL after 18 hrs by crystal-violet staining assay; format: functional
[25] = tested on: Mus musculus; assay: Antiinflammatory activity against carrageenan-induced hind paw edema in CD1 foot-pad mouse model assessed as reduction in paw swelling at 30 mg/kg, ip after 6 hrs; format: functional, organism-based; parameters: dose 30 mg/kg
[26] = tested on: Mus musculus; assay: Antiinflammatory activity in paraffin oil challenged C3H-FeJ peritonitis mouse model assessed as peritoneal levage macrophage count per 10^5/mL at 2 mg/kg, ip after 3 days; format: functional; conditions: route intraperitoneal
[27] = tested on: Mus musculus; assay: Antiinflammatory activity in paraffin oil challenged C3H-FeJ peritonitis mouse model assessed as peritoneal levage macrophage count per 10^5/mL at 2 mg/kg, ip after 7 days; format: functional; conditions: route intraperitoneal
[28] = tested on: Mus musculus; assay: Effect on LPS-induced nitric oxide production in C3H-FeJ peritonitis mouse peritoneal macrophages at 4 mg/kg, ip after 3 days; format: functional; conditions: route intraperitoneal
[29] = tested on: HT-29; assay: Inhibition of LPS-stimulated […] release in human HT29 cells after 6 hrs by ELISA; format: functional, cell-based

COc1cc2ncnc(Nc3ccc(O)cc3)c2cc1OC [WHI-P131]
Activity [1]: 3 µM
Activity [2]: 40 µM
Activity [3]: 45.3%
IC50 [4]: 1.4 µM
Activity [5]: Active
Activity [6]: Active
Activity [7]: 4 µM
Activity [8]: 0%
Activity [9]: Non-toxic
IC50 [10]: 1.7 µM
IC50 [11]: 14.5 µM
Activity [12]: Active
Activity [13]: Active
Activity [14]: 31.8%
Activity [15]: 2.3
Activity [16]: 34.6%
ED50 [17]: 2.8 mg/kg
IC50 [18]: 124 µM
Activity [19]: Dose-dependent effect
Activity [20]: Active
Activity [21]: 2.5
Activity [22]: 18.8%
Activity [23]: 25.7%
Activity [24]: 45.9%
Activity [25]: Active
Activity [26]: 3.1
Activity [27]: 4.3
Activity [28]: 13 µM
Activity [29]: Active
